ChEMBL document CHEMBL1146802, “Glyco-optimization of aminoglycosides: new aminoglycosides as novel anti-infective agents” (2004)
Values after ≈ are worked out from the molar mass of the structure shown.

Columns and labels:
Type in all cases: functional
Staphylococcus aureus [1] = assay: In vitro inhibitory activity against Staphylococcus aureus MRSA 33591
Escherichia coli [2] = assay: In vitro inhibitory activity against Escherichia coli ATCC 25922
Staphylococcus aureus [3] = assay: In vitro inhibitory activity against Staphylococcus aureus ATCC 29213
Pseudomonas aeruginosa [4] = assay: In vitro inhibitory activity against Pseudomonas aeruginosa ATCC 27853
Enterococcus faecalis [5] = assay: In vitro inhibitory activity against Enterococcus faecalis ATCC 29212
Pseudomonas aeruginosa [6] = assay: In vitro inhibitory activity against Pseudomonas aeruginosa PAO-1
Pseudomonas aeruginosa [7] = assay: In vitro inhibitory activity against Pseudomonas aeruginosa ATCC 35151
Enterococcus faecalis [8] = assay: In vitro inhibitory activity against Enterococcus faecalis ATCC 29212; Value ranges from 8-32 ug/mL
Escherichia coli [9] = assay: In vitro inhibitory activity against Escherichia coli ATCC 25922; Value ranges from 0.25-1 ug/mL
[10] = Enterococcus faecalis, ATCC 29212, read-out: MIC
[11] = Escherichia coli, ATCC 25922, read-out: MIC
[12] = Staphylococcus aureus, ATCC 29213, read-out: MIC
[13] = Pseudomonas aeruginosa, ATCC 27853, read-out: MIC
[14] = Pseudomonas aeruginosa, read-out: MIC
[15] = Pseudomonas aeruginosa, ATCC 35151, read-out: MIC

SMILES	MIC (Staphylococcus aureus [1])	MIC (Escherichia coli [2])	MIC (Staphylococcus aureus [3])	MIC (Pseudomonas aeruginosa [4])	MIC (Enterococcus faecalis [5]; [10])	MIC (Pseudomonas aeruginosa [6])	MIC (Enterococcus faecalis [5])	MIC (Pseudomonas aeruginosa [7])	MIC (Escherichia coli [2]; [11])	MIC (Staphylococcus aureus [3]; [12])	MIC (Pseudomonas aeruginosa [4]; [13])	MIC (Pseudomonas aeruginosa [6]; [14])	MIC (Pseudomonas aeruginosa [7]; [15])	MIC (Enterococcus faecalis [8])	MIC (Escherichia coli [9])
NCC1OC(OC2C(N)CC(N)C(OC3OCC(O)C(N)C3O)C2O)C(N)CC1O (stereo in doubt; 8v)	> 64 µg/mL	>64 µg/mL	32 µg/mL (≈ 73.1 µM)	>64 µg/mL	> 64 µg/mL	–	–	–	–	–	–	–	–	–	–
NCC1OC(OC2C(N)CC(N)C(OC3OC(CO)C(N)C(O)C3N)C2O)C(N)CC1O (stereo in doubt; form 1)	–	32 µg/mL (≈ 68.6 µM)	8 µg/mL (≈ 17.1 µM)	32 µg/mL (≈ 68.6 µM)	–	16 µg/mL (≈ 34.3 µM)	>64 µg/mL	16 µg/mL (≈ 34.3 µM)	–	–	–	–	–	–	–
NCC1OC(OC2C(N)CC(N)C(OC3OCC(O)C(O)C3O)C2O)C(N)CC1O (centres undefined)	> 64 µg/mL	–	–	–	> 64 µg/mL	–	–	–	> 64 µg/mL	> 64 µg/mL	> 64 µg/mL	> 64 µg/mL	> 64 µg/mL	–	–
NCC1OC(OC2C(N)CC(N)C(OC3OC(CO)C(N)C(N)C3O)C2O)C(N)CC1O (stereo in doubt; form 1)	> 64 µg/mL	–	32 µg/mL (≈ 68.6 µM)	>64 µg/mL	> 64 µg/mL	>64 µg/mL	–	>64 µg/mL	–	–	–	–	–	–	–
NCC1OC(OC2C(N)CC(N)C(OC3OC(CN)C(O)C(O)C3N)C2O)C(N)CC1O (centres undefined)	> 64 µg/mL	–	–	–	> 64 µg/mL	–	–	–	32 µg/mL (≈ 68.6 µM)	8 µg/mL (≈ 17.1 µM)	16 µg/mL (≈ 34.3 µM)	8 µg/mL (≈ 17.1 µM)	16 µg/mL (≈ 34.3 µM)	–	–
NCC1OC(OC2C(N)CC(N)C(OC3OCC(O)C(N)C3O)C2O)C(N)CC1O (stereo in doubt; 8u)	–	2 µg/mL (≈ 4.57 µM)	2 µg/mL (≈ 4.57 µM)	2 µg/mL (≈ 4.57 µM)	–	–	–	–	–	–	–	–	–	–	–
NCC1OC(OC2C(N)CC(N)C(OC3OC(CO)C(N)C(N)C3O)C2O)C(N)CC1O (stereo in doubt; form 2)	–	–	1 µg/mL (≈ 2.14 µM)	2 µg/mL (≈ 4.29 µM)	–	2 µg/mL (≈ 4.29 µM)	64 µg/mL (≈ 137 µM)	1 µg/mL (≈ 2.14 µM)	–	–	–	–	–	–	–
CC1OC(OC2C(N)CC(N)C(OC3OC(CN)C(O)CC3N)C2O)C(O)C(O)C1O (centres undefined)	> 64 µg/mL	–	–	–	> 64 µg/mL	–	–	–	> 64 µg/mL	> 64 µg/mL	> 64 µg/mL	> 64 µg/mL	> 64 µg/mL	–	–
CC1OC(OC2C(N)CC(N)C(OC3OC(CN)C(O)CC3N)C2O)C(N)C(O)C1O (centres undefined)	> 64 µg/mL	–	–	–	> 64 µg/mL	–	–	–	> 64 µg/mL	> 64 µg/mL	> 64 µg/mL	–	–	–	–
NCC1OC(OC2C(N)CC(N)C(OC3OC(CO)C(O)C(N)C3N)C2O)C(N)CC1O (stereo in doubt; form 2)	> 64 µg/mL	–	64 µg/mL (≈ 137 µM)	>64 µg/mL	> 64 µg/mL	–	–	–	> 64 µg/mL	–	–	–	–	–	–
NCC1OC(OC2C(N)CC(N)C(OC3OCC(O)C(O)C3N)C2O)C(N)CC1O (centres undefined)	> 64 µg/mL	–	–	–	> 64 µg/mL	–	–	–	8 µg/mL (≈ 18.3 µM)	16 µg/mL (≈ 36.6 µM)	16 µg/mL (≈ 36.6 µM)	–	–	–	–
NCC1OC(OC2C(N)CC(N)C(OC3OC(CO)C(N)C(O)C3N)C2O)C(N)CC1O (stereo in doubt; form 2)	> 64 µg/mL	2 µg/mL (≈ 4.29 µM)	1 µg/mL (≈ 2.14 µM)	2 µg/mL (≈ 4.29 µM)	32 µg/mL (≈ 68.6 µM)	1 µg/mL (≈ 2.14 µM)	–	1 µg/mL (≈ 2.14 µM)	–	–	–	–	–	–	–
NC[C@@H]1O[C@H](O[C@H]2[C@H](O)[C@H](O[C@H]3O[C@@H](CO)[C@@H](O)[C@H](O)[C@@H]3O)[C@H](N)C[C@H]2N)[C@@H](N)C[C@@H]1O	> 64 µg/mL	–	–	–	> 64 µg/mL	–	–	–	32 µg/mL (≈ 68.3 µM)	32 µg/mL (≈ 68.3 µM)	16 µg/mL (≈ 34.2 µM)	8 µg/mL (≈ 17.1 µM)	16 µg/mL (≈ 34.2 µM)	–	–
NCC1OC(OC2C(N)CC(N)C(OC3OC(CO)C(O)C(N)C3N)C2O)C(N)CC1O (stereo in doubt; form 1)	–	–	1 µg/mL (≈ 2.14 µM)	2 µg/mL (≈ 4.29 µM)	–	–	32 µg/mL (≈ 68.6 µM)	–	–	–	–	1 µg/mL (≈ 2.14 µM)	1 µg/mL (≈ 2.14 µM)	–	–
CC1CC(N(C)C)C(O)C(OC2C(N)CC(N)C(OC3OC(CN)C(O)CC3N)C2O)O1 (centres undefined)	> 64 µg/mL	–	–	–	> 64 µg/mL	–	–	–	16 µg/mL (≈ 34.5 µM)	32 µg/mL (≈ 69 µM)	> 64 µg/mL	64 µg/mL (≈ 138 µM)	32 µg/mL (≈ 69 µM)	–	–
NC[C@H]1O[C@H](O[C@H]2[C@H](O)[C@@H](O[C@H]3O[C@H](CO)[C@@H](O)[C@H](N)[C@H]3O)[C@H](N)C[C@@H]2N)[C@H](N)C[C@@H]1O [TOBRAMYCIN]	> 64 µg/mL	–	–	–	–	–	–	–	–	0.5 µg/mL (≈ 1.07 µM)	0.5 µg/mL (≈ 1.07 µM)	0.5 µg/mL (≈ 1.07 µM)	0.5 µg/mL (≈ 1.07 µM)	> 32 µg/mL	> 1 µg/mL
